Target: SARS-COV-2 3CLpro/Mpro protease (Severe acute respiratory syndrome coronavirus 2 (2019-nCoV) (SARS-CoV-2), UniProt P0DTD1)
Assay: Inhibitory effect on SARS-COV-2 3CLpro/Mpro protease by fluorescence resonance energy transfer
Assay type: biochemical
Conditions: activity intervals A-D, read-out: IC50 (nM), Inhibition on SARS-CoV-2 3CLpro/Mpro protease

Row | Structure (SMILES) | IC50 [nM]
1 | CNc1cncc(C(=O)N2C[C@H](Nc3c(C(=O)N4C[C@@H](C)O[C@@H](C)C4)cc(Br)cc3[N+](=O)[O-])C[C@H]2C(=O)Nc2ccnc(C(F)(F)F)c2)c1 [Example 427, (2S,4R)-4-((4-bromo-2-((2R,6S)-2,6-dimethylmorpholin-4-carbonyl)-6-nitrophenyl)amino)-1-(5-(methylamino)nicotinoyl)-N-(2-(trifluoromethyl)pyridin-4-yl) pyrrolidine-2-formamide] | 100 to 200
2 | CNc1cncc(C(=O)N2C[C@H](Nc3c(C(=O)N4C[C@@H](C)O[C@@H](C)C4)cc(Br)cc3[N+](=O)[O-])C[C@H]2C(=O)Nc2ccnc(C(F)(F)F)n2)c1 [Example 428] | 50 to 100
3 | CNc1cncc(C(=O)N2C[C@H](Nc3c(C(=O)N4C[C@@H](C)O[C@@H](C)C4)cc(Br)cc3[N+](=O)[O-])C[C@H]2C(=O)Nc2cc3nn(C)cc3cc2Cl)c1 [Example 429] | 100 to 200
4 | CNc1cncc(C(=O)N2C[C@H](Nc3c(C(=O)N4C[C@@H](C)O[C@@H](C)C4)cc(Br)cc3[N+](=O)[O-])C[C@H]2C(=O)NCc2ccnc(NC)c2)c1 [Example 430] | 100 to 200
5 | CNc1cncc(C(=O)N2C[C@H](Nc3c(C(=O)N4C[C@@H](C)O[C@@H](C)C4)cc(Br)cc3[N+](=O)[O-])C[C@H]2C(=O)NCc2ccnc(C(F)F)c2)c1 [Example 431] | 50 to 100
6 | CNc1cncc(C(=O)N2C[C@H](Nc3c(C(=O)N4C[C@@H](C)O[C@@H](C)C4)cc(Br)cc3[N+](=O)[O-])C[C@H]2C(=O)NC2C[C@@H](C)O[C@@H](C)C2)c1 (stereo partly shown) [Example 433] | 100 to 200
7 | CNc1cncc(C(=O)N2C[C@H](Nc3c(C(=O)N4C[C@@H](C)O[C@@H](C)C4)cc(Br)cc3[N+](=O)[O-])C[C@H]2C(=O)N[C@H]2CC[C@@H](OC)C2)c1 [Example 434, (2S,4R)-4-((4-bromo-2-((2R,6S)-2,6-dimethylmorpholin-4-carbonyl)-6-nitrophenyl)amino)-N-((1S,3R)-3-methoxycyclopentyl)-1-(5-(methylamino)nicotinoyl) pyrrolidine-2-formamide] | 100 to 200
8 | CNc1cncc(C(=O)N2C[C@H](Nc3c(C(=O)N4C[C@@H](C)O[C@@H](C)C4)cc(Br)cc3[N+](=O)[O-])C[C@H]2C(=O)Nc2ccc3c(cnn3C)c2Cl)c1 [Example 435] | 50 to 100
9 | CNc1cncc(C(=O)N2C[C@H](Nc3c(C(=O)N4C[C@@H](C)O[C@@H](C)C4)cc(Br)cc3[N+](=O)[O-])C[C@H]2C(=O)Nc2cc(C(F)(F)F)ncn2)c1 [Example 436, (2S,4R)-4-((4-bromo-2-((2R,6S)-2,6-dimethylmorpholin-4-carbonyl)-6-nitrophenyl)amino)-1-(5-(methylamino)nicotinoyl)-N-(6-(trifluoromethyl)pyrimidin-4-yl) pyrrolidine-2-formamide] | 50 to 100
10 | CNc1cncc(C(=O)N2C[C@H](Nc3c(C(=O)N4C[C@@H](C)O[C@@H](C)C4)cc(Br)cc3[N+](=O)[O-])C[C@H]2C(=O)N[C@H]2CC(=O)N(C)C2)c1 [Example 437] | 50 to 100
11 | CNc1cncc(C(=O)N2C[C@H](Nc3c(C(=O)N4C[C@@H](C)O[C@@H](C)C4)cc(Br)cc3[N+](=O)[O-])C[C@H]2C(=O)Nc2nn(C3C[C@@H](C)O[C@@H](C)C3)cc2Br)c1 (stereo partly shown) [Example 438] | 10 to 50
12 | CO[C@H]1CN(C(=O)c2cncc3[nH]nc(C)c23)C[C@@H]1Nc1c(C(=O)N2C[C@@H](C)O[C@@H](C)C2)cc(Br)cc1[N+](=O)[O-] [Example 439, (5-Bromo-2-(((3S,4S)-4-methoxy-1-(3-methyl-1H-pyrazolo[3,4-c]pyridin-4-carbonyl)pyrrolidin-3-yl)amino)-3-nitrophenyl)((2S,6R)-2,6-dimethylmorpholinyl)methanone] | 10 to 50
13 | CNc1cncc(C(=O)N2C[C@H](Nc3c(-c4nnn(C)n4)cc(Br)cc3[N+](=O)[O-])[C@@H](OC)C2)c1 [Example 440, ((3S,4S)-3-((4-bromo-2-(2-methyl-2H-tetrazol-5-yl)-6-nitrophenyl)amino)-4-methoxypyrrolidin-1-yl)(5-(methylamino)pyridin-3-yl)methanone] | 50 to 100

Reference: patent US20250042889A1, “3CLPRO PROTEASE INHIBITOR” (SHANGHAI QILU PHARMACEUTICAL RESEARCH AND DEVELOPMENT …, priority 2021, published 2025)
